Measured values taken from ChEMBL document CHEMBL1155376, “Structure-activity relationships of norepinephrine reuptake inhibitors with benzothiadiazine dioxide or dihydrosulfostyril cores” (Bioorg Med Chem Lett, 2010).

Assays:
[1] = target: T1, Sodium-dependent serotonin transporter (Homo sapiens, UniProt P31645); test: Inhibition of serotonin uptake at human SERT expressed in human JAR
Target sequence in this assay (P31645 whole entry): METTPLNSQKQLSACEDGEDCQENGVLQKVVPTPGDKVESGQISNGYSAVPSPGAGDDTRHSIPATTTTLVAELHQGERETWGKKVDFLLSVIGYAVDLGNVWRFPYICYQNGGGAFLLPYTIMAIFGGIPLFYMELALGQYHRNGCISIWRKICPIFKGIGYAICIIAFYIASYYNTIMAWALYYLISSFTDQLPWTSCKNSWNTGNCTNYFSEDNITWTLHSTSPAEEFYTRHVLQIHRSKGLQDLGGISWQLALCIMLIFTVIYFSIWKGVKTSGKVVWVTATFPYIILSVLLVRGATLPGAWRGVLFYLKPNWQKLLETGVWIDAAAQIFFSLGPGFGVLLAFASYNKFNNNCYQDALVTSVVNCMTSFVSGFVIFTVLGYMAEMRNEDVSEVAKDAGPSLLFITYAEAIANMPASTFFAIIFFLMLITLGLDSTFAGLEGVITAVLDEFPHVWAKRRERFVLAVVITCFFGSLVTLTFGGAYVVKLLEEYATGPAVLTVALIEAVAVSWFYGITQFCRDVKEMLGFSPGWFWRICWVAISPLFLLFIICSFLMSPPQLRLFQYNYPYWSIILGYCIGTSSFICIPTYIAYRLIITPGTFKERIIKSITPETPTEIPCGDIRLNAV

[2] = target: T2, Sodium-dependent dopamine transporter (Homo sapiens, UniProt Q01959); test: Displacement of [3H]WIN-35428 from human recombinant DAT expressed in CHO cells at 1 uM; assay type: cell-based
[3] = target: Sodium-dependent noradrenaline transporter (Homo sapiens, UniProt P23975)
Description: Inhibition of norepinephrine uptake at human NET expressed in MDCK-Net6 cells

[4] = target: T1, Sodium-dependent serotonin transporter; test: Inhibition of serotonin uptake at human SERT expressed in human JAR at 1 uM
Target sequence in this assay (P31645 whole entry, looked up): as the sequence (P31645 whole entry) above

[5] = Half life in rat liver microsomes at 1 uM
[6] = target: T1, Sodium-dependent serotonin transporter; test: Inhibition of serotonin uptake at human SERT expressed in human JAR at 6 uM
Target sequence in this assay (P31645 whole entry, looked up): as the sequence (P31645 whole entry) above

Rattus norvegicus [7] = test: Thermoregulatory activity in OVX-induced thermoregulatory dysfunction Sprague-Dawley rat model assessed as maximum reduction in tail-skin temperature at 3 mg/kg, po by implanted temperature and physical activity transmitter; assay type: functional
Rattus norvegicus [8] = test: Thermoregulatory activity in OVX-induced thermoregulatory dysfunction Sprague-Dawley rat model assessed as mean reduction in tail-skin temperature at 3 mg/kg, po by implanted temperature and physical activity transmitter; assay type: functional
[9] = target: T2, Sodium-dependent dopamine transporter; test: Displacement of [3H]WIN-35428 from human recombinant DAT expressed in CHO cells at 10 uM; assay type: cell-based
[10] = target: T2, Sodium-dependent dopamine transporter; test: biochemical
Rattus norvegicus [11] = test: Duration of thermoregulatory activity in OVX-induced thermoregulatory dysfunction Sprague-Dawley rat model at 3 mg/kg, po by implanted temperature and physical activity transmitter; assay type: functional

T2 sequence (Q01959 whole entry): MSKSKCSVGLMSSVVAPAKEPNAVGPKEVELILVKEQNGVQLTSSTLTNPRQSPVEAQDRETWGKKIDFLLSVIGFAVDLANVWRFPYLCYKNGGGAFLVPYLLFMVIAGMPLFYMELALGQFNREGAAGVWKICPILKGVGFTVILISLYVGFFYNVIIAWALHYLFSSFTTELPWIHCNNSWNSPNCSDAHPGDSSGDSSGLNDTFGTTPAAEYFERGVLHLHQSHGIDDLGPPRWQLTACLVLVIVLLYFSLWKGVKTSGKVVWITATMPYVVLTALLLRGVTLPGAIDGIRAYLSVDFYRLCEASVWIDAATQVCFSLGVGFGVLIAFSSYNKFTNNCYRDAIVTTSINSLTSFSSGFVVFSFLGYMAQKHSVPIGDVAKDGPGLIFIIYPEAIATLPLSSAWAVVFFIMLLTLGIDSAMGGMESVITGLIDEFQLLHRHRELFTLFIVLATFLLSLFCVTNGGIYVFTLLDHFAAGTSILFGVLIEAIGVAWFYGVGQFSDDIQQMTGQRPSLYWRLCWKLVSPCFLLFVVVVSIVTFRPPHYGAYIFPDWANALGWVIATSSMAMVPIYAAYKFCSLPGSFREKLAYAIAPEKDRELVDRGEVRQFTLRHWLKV
Sequence of Sodium-dependent noradrenaline transporter (P23975 whole entry): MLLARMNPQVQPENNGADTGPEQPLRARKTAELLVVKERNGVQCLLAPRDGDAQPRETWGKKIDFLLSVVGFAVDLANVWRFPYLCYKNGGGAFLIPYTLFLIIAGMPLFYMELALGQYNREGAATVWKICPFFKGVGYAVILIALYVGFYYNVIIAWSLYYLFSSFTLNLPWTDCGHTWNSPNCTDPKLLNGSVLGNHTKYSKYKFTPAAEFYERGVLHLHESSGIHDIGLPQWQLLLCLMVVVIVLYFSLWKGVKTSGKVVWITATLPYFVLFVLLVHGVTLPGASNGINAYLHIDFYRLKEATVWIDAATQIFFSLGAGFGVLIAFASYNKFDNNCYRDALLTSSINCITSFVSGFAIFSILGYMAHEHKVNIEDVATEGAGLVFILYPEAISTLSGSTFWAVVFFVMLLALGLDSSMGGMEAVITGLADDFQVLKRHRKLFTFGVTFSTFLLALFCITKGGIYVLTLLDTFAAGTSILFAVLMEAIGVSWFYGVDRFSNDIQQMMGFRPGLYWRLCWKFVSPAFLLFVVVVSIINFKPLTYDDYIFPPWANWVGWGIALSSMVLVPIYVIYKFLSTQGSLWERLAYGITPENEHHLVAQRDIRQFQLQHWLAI

Row | IC50 [1] [nM] | IC50 [3] [nM] | half-life at 1 µM [5] [min] | SMILES | also measured
1 | 1500 | – | – | CNCCCN1Cc2cc(F)ccc2N(c2ccccc2F)S1(=O)=O | inhibition [2]: 2.5%
2 | 110 | – | – | CNCCCCN1Cc2cc(F)ccc2N(c2ccccc2F)S1(=O)=O | inhibition [2]: 25%
3 | 2000 | – | – | CNCCCCN1Cc2ccccc2N(c2ccccc2F)S1(=O)=O | inhibition [2]: 18%
4 | 13300 | – | – | CNCCN1Cc2cc(F)ccc2N(c2ccccc2F)S1(=O)=O | inhibition [2]: -5%
5 | – | 140 | – | CNCCCN1Cc2ccccc2N(c2ccc(C)cc2)S1(=O)=O | –
6 | 6000 | – | – | CNCCCN1Cc2ccccc2N(c2ccccc2)S1(=O)=O | inhibition [2]: 17%
7 | 5500 | – | – | CNCCCN1Cc2ccccc2N(c2ccccc2F)S1(=O)=O | inhibition [2]: -7%
8 | – | – | – | CNCCN1Cc2ccccc2N(c2ccccc2F)S1(=O)=O | inhibition [2]: 24%; inhibition [4]: 24%
9 | – | 25 | > 30 | CNCCCC1Cc2cc(F)ccc2N(c2c(F)cccc2F)S1(=O)=O (single isomer, unassigned) [listing 1 of 2 here] | –
10 | – | – | – | CNCCCC1Cc2cc(F)ccc2N(c2c(F)cccc2F)S1(=O)=O (single isomer, unassigned) [listing 2 of 2 here] | inhibition [6]: 82%
11 | – | 52 | 3 | CNCCCC1Cc2ccccc2N(c2c(F)cccc2F)S1(=O)=O (single isomer, unassigned; 16e) [listing 1 of 2 here] | –
12 | – | – | – | CNCCCC1Cc2ccccc2N(c2c(F)cccc2F)S1(=O)=O (single isomer, unassigned; 16e) [listing 2 of 2 here] | inhibition [6]: 40%
13 | 8000 | 5 | 4 | CNCCCC1Cc2ccccc2N(c2c(F)cccc2F)S1(=O)=O.Cl (single isomer, unassigned; 16f) | Activity (Rattus norvegicus [7]): 0 °C; Activity (Rattus norvegicus [8]): 0 °C
14 | – | – | – | CNCCCC1Cc2ccccc2N(c2c(F)cccc2F)S1(=O)=O (single isomer, unassigned; 16f) | inhibition [9]: 3.8%
15 | 6900 | 88 | 3 | CNCCCC1Cc2ccccc2N(c2ccccc2)S1(=O)=O (single isomer, unassigned; enantiomer I) | –
16 | – | 55 | < 1 | CNCCCC1Cc2ccccc2N(c2ccccc2F)S1(=O)=O (single isomer, unassigned; enantiomer I) [listing 1 of 2 here] | –
17 | 720 | 93 | > 30 | CNCCCC1Cc2cc(F)ccc2N(c2ccccc2F)S1(=O)=O (single isomer, unassigned; enantiomer I) | –
18 | – | – | – | CNCCCC1Cc2cc(F)ccc2N(c2ccccc2)S1(=O)=O (single isomer, unassigned; enantiomer I) | inhibition [6]: 85%
19 | – | – | – | CNCCCC1Cc2ccccc2N(c2ccccc2F)S1(=O)=O (single isomer, unassigned; enantiomer I) [listing 2 of 2 here] | inhibition [6]: 11%; inhibition [9]: 21%
20 | 2500 | 12 | < 1 | CNCCCC1Cc2ccccc2N(c2ccccc2)S1(=O)=O.Cl (single isomer, unassigned; enantiomer II) | IC50 [10]: 6600 nM
21 | – | 3 | < 1 | CNCCCC1Cc2ccccc2N(c2ccccc2F)S1(=O)=O.Cl (single isomer, unassigned; enantiomer II) | –
22 | 240 | – | – | CNCCCC1Cc2cc(F)ccc2N(c2ccccc2)S1(=O)=O (single isomer, unassigned; enantiomer II) | IC50 [10]: 4000 nM
23 | 340 | 11 | > 30 | CNCCCC1Cc2cc(F)ccc2N(c2ccccc2F)S1(=O)=O.Cl (single isomer, unassigned; enantiomer II) | Activity (Rattus norvegicus [7]): 2.4 °C; Activity (Rattus norvegicus [8]): 1.5 °C; Activity (Rattus norvegicus [11]): 6 h
24 | 600 | 27 | > 30 | CNCCCC1Cc2cc(F)ccc2N(c2c(F)cccc2F)S1(=O)=O.Cl (single isomer, unassigned; enantiomer II) | –
25 | – | – | – | CNCCCC1Cc2cc(F)ccc2N(c2ccccc2F)S1(=O)=O (single isomer, unassigned; enantiomer II) | inhibition [9]: 50%
26 | – | – | – | CNCCCC1Cc2ccccc2N(c2ccccc2F)S1(=O)=O (single isomer, unassigned; enantiomer II) | inhibition [6]: 74%; inhibition [9]: 23%
